# Assay: method code SF-AS, from DOI: 10.2298/jsc0810967p
# Conditions: pH 7.4
row,Structure (SMILES),logD
1,Cc1cc2ncn(Cc3cccc(F)c3)c2cc1C,4.5
2,Cc1cccc(Cn2cnc3cc(C)c(C)cc32)c1,4.85
3,Cc1cc2ncn(Cc3cccc(Cl)c3)c2cc1C,5.05
4,COc1cccc(Cn2cnc3cc(C)c(C)cc32)c1,4.28
